For two molecules, Kd results are on record in paper PMC6406002, “Comparison of the functional properties of trimeric and monomeric CaiT of Escherichia coli” (Scientific Reports, 2019).

Read-outs that look alike come from different tables or passages of the source.

What all share (experiment): tryptophan fluorescence titration
Common to all, as to type: binding

For test [1], the target named is T1, CaiT (Escherichia coli, UniProt P31553, D288R).
T1 construct: full-length with C-terminal 6His tag (pET21a), expressed in E. coli JW0039 (delta caiT), Ni-NTA purified; homotrimer (D288A and D288R mostly monomeric); DDM-solubilized or in proteoliposomes
The source says: (§1) tryptophan fluorescence titration on CaiT

Test [2] deals with T2, CaiT (Escherichia coli, UniProt P31553, D288A).
T2 construct: full-length with C-terminal 6His tag (pET21a), expressed in E. coli JW0039 (delta caiT), Ni-NTA purified; homotrimer (D288A and D288R mostly monomeric); DDM-solubilized or in proteoliposomes
Source text: as §1

In test [3] the target is T3, CaiT (Escherichia coli, UniProt P31553).
T3 construct: full-length with C-terminal 6His tag (pET21a), expressed in E. coli JW0039 (delta caiT), Ni-NTA purified; homotrimer (D288A and D288R mostly monomeric); DDM-solubilized or in proteoliposomes
Source text: as §1

Turning to `C[N+](C)(C)CCCC(=O)[O-]` [γ-butyrobetaine], the figures for the Kd in test [1] (read-out: γ-butyrobetaine / Kd), in test [2] (read-out: γ-butyrobetaine / Kd) and in test [3] (read-out: γ-butyrobetaine / Kd) were 11.4 ± 4.4 mM, 3.3 ± 1.3 mM and 3.4 ± 0.1 mM, respectively.
Consider `C[N+](C)(C)C[C@H](O)CC(=O)O` [L-carnitine], for which the Kd is 1.9 ± 1 mM in test [1] (read-out: L-carnitine / Kd), 1.8 ± 0.9 mM in test [2] (read-out: L-carnitine / Kd) and 3.3 ± 0.2 mM in test [3] (read-out: L-carnitine / Kd).
